Test results reported in US12052991B2, “Substituted pyridinyloxybenzenes and salts thereof and use thereof as herbicidal agents” (Bayer Aktiengesellschaft, priority 2018, dated 2024).

Legend:
Format in all cases: in vivo
Poa annua (POAAN) [1] = test: Herbicidal pre-emergence action, test C (Table C3); conditions: visual scoring after about 3 weeks, 100% = plants have died, 0% = like control plants
Procedure, shortened: (§1)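 Visual percentage damage relative to untreated pots (0% = like control, 100% = dead) was rated roughly 3 weeks after pre-emergence treatment in the greenhouse. Sandy loam pots were sown with weed seeds and covered with soil. The surface was sprayed with WP or EC formulations plus 0.5% additive at 600 L/ha, delivering 1280 or 320 g/ha.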

Setaria viridis (SETVI) [2] = test: Herbicidal pre-emergence action, test C (Table C4); conditions: visual scoring after about 3 weeks, 100% = plants have died, 0% = like control plants
Procedure, shortened: as §1

[3] = system: Amaranthus retroflexus (AMARE); test: Herbicidal post-emergence action (Table B6); conditions: visual rating about 3 weeks after treatment, 100% = plants have died, 0% = like control plants
Procedure, shortened: (§2)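 Activity was scored visually against untreated plants roughly 3 weeks after treatment, 0% meaning like control and 100% plant death. Application was post-emergence onto green parts at the one-leaf stage, as aqueous suspension/emulsion with 0.5% additive, 600 l/ha, delivering 1280 or 320 g/ha to greenhouse plants in sandy loam.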

Lolium rigidum (LOLRI) [4] = test: Herbicidal pre-emergence action, test C (Table C2); conditions: visual scoring after about 3 weeks, 100% = plants have died, 0% = like control plants
Procedure, shortened: as §1

[5] = system: Abutilon theophrasti (ABUTH); test: Herbicidal pre-emergence action, test C (Table C5); conditions: visual scoring after about 3 weeks, 100% = plants have died, 0% = like control plants
Procedure, shortened: as §1

[6] = system: Amaranthus retroflexus (AMARE); test: Herbicidal pre-emergence action, test C (Table C6); conditions: visual scoring after about 3 weeks, 100% = plants have died, 0% = like control plants
Procedure, shortened: as §1

[7] = system: Echinochloa crus-galli (ECHCG); test: Herbicidal pre-emergence action, test C (Table C1); conditions: visual scoring after about 3 weeks, 100% = plants have died, 0% = like control plants
Procedure, shortened: as §1

Stellaria media (STEME) [8] = test: Herbicidal post-emergence action (Table B8); conditions: visual rating about 3 weeks after treatment, 100% = plants have died, 0% = like control plants
Procedure, shortened: as §2

Lolium rigidum (LOLRI) [9] = test: Herbicidal post-emergence action (Table B2); conditions: rated visually after about 3 weeks, 100% = plants have died, 0% = like control plants
Procedure: Seeds of mono- and dicotyledonous weed plants were placed in plastic pots in sandy loam soil (doubly sown with in each case one species of mono- or dicotyledonous weed plants per pot), covered with soil and cultivated in a greenhouse under controlled growth conditions. 2 to 3 weeks after sowing, the test plants were treated at the one-leaf stage. The compounds of the invention, formulated in the form of wettable powders (WP) or as emulsion concentrates (EC), were applied onto the green parts of the plants as aqueous suspension or emulsion with addition of 0.5% additive at a water application rate of 600 liters per hectare (converted). After the test plants had been kept in the greenhouse under optimum growth conditions for about 3 weeks, the activity of the preparations was rated visually in comparison to untreated controls. For example, 100% activity=the plants have died, 0% activity=like control plants. Tables B1 to B12 below show the effects of selected compounds of the general formula (I) according to Table 1 on various harmful plants and an application rate corresponding to 1280 or 320 g/ha, which were obtained by the experimental procedure mentioned above.

Setaria viridis (SETVI) [10] = test: Herbicidal post-emergence action (Table B4); conditions: rated visually after about 3 weeks, 100% = plants have died, 0% = like control plants
Procedure, shortened: as §2

[11] = system: Abutilon theophrasti (ABUTH); test: Herbicidal post-emergence action (Table B5); conditions: rated visually after about 3 weeks, 100% = plants have died, 0% = like control plants
Procedure, shortened: as §2

Poa annua (POAAN) [12] = test: Herbicidal post-emergence action (Table B3); conditions: rated visually after about 3 weeks, 100% = plants have died, 0% = like control plants
Procedure, shortened: as §2

Stellaria media (STEME) [13] = test: Herbicidal pre-emergence action, test C (Table C8); conditions: visual scoring after about 3 weeks, 100% = plants have died, 0% = like control plants
Procedure, shortened: as §1

[14] = system: harmful plants ABUTH, AMARE, ECHCG, LOLRI, MATIN, POAAN, SETVI, STEME, ALOMY, DIGSA, KCHSC and VERPE; test: Herbicidal pre-emergence action (test C), summary of Tables C1-C12; conditions: application rate of 1280 or 320 g of active ingredient per hectare; summary in words
Procedure, shortened: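 Visual % damage versus untreated plants (0% = like control, 100% = died) was scored after about 3 weeks in the greenhouse. Before emergence, seeds sown in sandy loam got a soil-surface spray of compound as WP or EC plus 0.5% additive, using 600 L/ha water at rates of 1280 or 320 g/ha.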

[15] = system: Echinochloa crus-galli (ECHCG); test: Herbicidal post-emergence action (Table B1); conditions: rated visually after about 3 weeks, 100% = plants have died, 0% = like control plants
Procedure, shortened: as §2

[16] = system: harmful plants ABUTH, AMARE, ECHCG, LOLRI, MATIN, POAAN, SETVI, STEME, ALOMY, DIGSA, KCHSC and VERPE; test: Herbicidal post-emergence action, summary of Tables B1-B12; conditions: application rate of 1280 or 320 g of active ingredient per hectare; summary in words
Procedure, shortened: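 Activity scored by eye roughly 3 weeks post-treatment against untreated plants, from 0% (no effect) to 100% (plants dead). Application rates were 1280 or 320 g/ha, as aqueous WP/EC spray plus 0.5% additive at 600 L/ha, onto one-leaf-stage weeds grown 2–3 weeks in sandy loam.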

SMILES: Fc1cc(Cl)cnc1Oc1cccc(F)c1-c1cc(C(F)F)no1 [Example 1-19]
- Pre-emergence action against Poa annua (POAAN) (Poa annua (POAAN) [1]; dosage 320 g/ha): 100%
- Pre-emergence action against Poa annua (POAAN) (Poa annua (POAAN) [1]; dosage 1280 g/ha): 100%
- Pre-emergence action against Setaria viridis (SETVI) (Setaria viridis (SETVI) [2]; dosage 320 g/ha): 100%
- Pre-emergence action against Setaria viridis (SETVI) (Setaria viridis (SETVI) [2]; dosage 1280 g/ha): 100%
- Post-emergence action against Amaranthus retroflexus (AMARE) ([3]; dosage 320 g/ha): 100%
- Post-emergence action against Amaranthus retroflexus (AMARE) ([3]; dosage 1280 g/ha): 100%
- Pre-emergence action against Lolium rigidum (LOLRI) (Lolium rigidum (LOLRI) [4]; dosage 320 g/ha): 100%
- Pre-emergence action against Lolium rigidum (LOLRI) (Lolium rigidum (LOLRI) [4]; dosage 1280 g/ha): 100%
- Pre-emergence action against Abutilon theophrasti (ABUTH) ([5]; dosage 320 g/ha): 100%
- Pre-emergence action against Abutilon theophrasti (ABUTH) ([5]; dosage 1280 g/ha): 100%
- Pre-emergence action against Amaranthus retroflexus (AMARE) ([6]; dosage 320 g/ha): 100%
- Pre-emergence action against Amaranthus retroflexus (AMARE) ([6]; dosage 1280 g/ha): 100%
- Pre-emergence action against Echinochloa crus-galli (ECHCG) ([7]; dosage 320 g/ha): 100%
- Pre-emergence action against Echinochloa crus-galli (ECHCG) ([7]; dosage 1280 g/ha): 100%
- Post-emergence action against Stellaria media (STEME) (Stellaria media (STEME) [8]; dosage 320 g/ha): 100%
- Post-emergence action against Stellaria media (STEME) (Stellaria media (STEME) [8]; dosage 1280 g/ha): 100%
- Post-emergence action against Lolium rigidum (LOLRI) (Lolium rigidum (LOLRI) [9]; 320 g/ha): 100%
- Post-emergence action against Lolium rigidum (LOLRI) (Lolium rigidum (LOLRI) [9]; 1280 g/ha): 100%
- Post-emergence action against Setaria viridis (SETVI) (Setaria viridis (SETVI) [10]; 320 g/ha): 100%
- Post-emergence action against Setaria viridis (SETVI) (Setaria viridis (SETVI) [10]; 1280 g/ha): 100%
- Post-emergence action against Abutilon theophrasti (ABUTH) ([11]; 320 g/ha): 100%
- Post-emergence action against Abutilon theophrasti (ABUTH) ([11]; 1280 g/ha): 100%
- Post-emergence action against Poa annua (POAAN) (Poa annua (POAAN) [12]; 320 g/ha): 100%
- Post-emergence action against Poa annua (POAAN) (Poa annua (POAAN) [12]; 1280 g/ha): 100%
- Pre-emergence action against Stellaria media (STEME) (Stellaria media (STEME) [13]; dosage 320 g/ha): 100%
- Pre-emergence action against Stellaria media (STEME) (Stellaria media (STEME) [13]; dosage 1280 g/ha): 100%
- herbicidal activity against the harmful plants of Tables C1-C12 in pre-emergence treatment [14]: very good herbicidal activity
- Post-emergence action against Echinochloa crus-galli (ECHCG) ([15]; 320 g/ha): 100%
- Post-emergence action against Echinochloa crus-galli (ECHCG) ([15]; 1280 g/ha): 100%
- herbicidal activity against the harmful plants of Tables B1-B12 in post-emergence treatment [16]: very good herbicidal activity

SMILES: Cc1cccc(Oc2ncc(Cl)cc2F)c1-c1cc(C(F)F)no1 [Example 1-20]
- Pre-emergence action against Poa annua (POAAN) (Poa annua (POAAN) [1]; dosage 320 g/ha): 90%
- Pre-emergence action against Poa annua (POAAN) (Poa annua (POAAN) [1]; dosage 1280 g/ha): 90%
- Pre-emergence action against Setaria viridis (SETVI) (Setaria viridis (SETVI) [2]; dosage 320 g/ha): 100%
- Pre-emergence action against Setaria viridis (SETVI) (Setaria viridis (SETVI) [2]; dosage 1280 g/ha): 100%
- Post-emergence action against Amaranthus retroflexus (AMARE) ([3]; dosage 320 g/ha): 100%
- Post-emergence action against Amaranthus retroflexus (AMARE) ([3]; dosage 1280 g/ha): 100%
- Pre-emergence action against Lolium rigidum (LOLRI) (Lolium rigidum (LOLRI) [4]; dosage 1280 g/ha): 90%
- Pre-emergence action against Abutilon theophrasti (ABUTH) ([5]; dosage 320 g/ha): 90%
- Pre-emergence action against Abutilon theophrasti (ABUTH) ([5]; dosage 1280 g/ha): 100%
- Pre-emergence action against Amaranthus retroflexus (AMARE) ([6]; dosage 320 g/ha): 100%
- Pre-emergence action against Amaranthus retroflexus (AMARE) ([6]; dosage 1280 g/ha): 100%
- Pre-emergence action against Echinochloa crus-galli (ECHCG) ([7]; dosage 320 g/ha): 90%
- Pre-emergence action against Echinochloa crus-galli (ECHCG) ([7]; dosage 1280 g/ha): 90%
- Post-emergence action against Stellaria media (STEME) (Stellaria media (STEME) [8]; dosage 320 g/ha): 100%
- Post-emergence action against Stellaria media (STEME) (Stellaria media (STEME) [8]; dosage 1280 g/ha): 100%
- Post-emergence action against Lolium rigidum (LOLRI) (Lolium rigidum (LOLRI) [9]; 320 g/ha): 90%
- Post-emergence action against Lolium rigidum (LOLRI) (Lolium rigidum (LOLRI) [9]; 1280 g/ha): 90%
- Post-emergence action against Abutilon theophrasti (ABUTH) ([11]; 320 g/ha): 100%
- Post-emergence action against Abutilon theophrasti (ABUTH) ([11]; 1280 g/ha): 100%
- Post-emergence action against Poa annua (POAAN) (Poa annua (POAAN) [12]; 320 g/ha): 100%
- Post-emergence action against Poa annua (POAAN) (Poa annua (POAAN) [12]; 1280 g/ha): 100%
- Pre-emergence action against Stellaria media (STEME) (Stellaria media (STEME) [13]; dosage 320 g/ha): 100%
- Pre-emergence action against Stellaria media (STEME) (Stellaria media (STEME) [13]; dosage 1280 g/ha): 100%
- herbicidal activity against the harmful plants of Tables C1-C12 in pre-emergence treatment [14]: very good herbicidal activity
- Post-emergence action against Echinochloa crus-galli (ECHCG) ([15]; 320 g/ha): 100%
- Post-emergence action against Echinochloa crus-galli (ECHCG) ([15]; 1280 g/ha): 100%
- herbicidal activity against the harmful plants of Tables B1-B12 in post-emergence treatment [16]: very good herbicidal activity
